Test [1] deals with T1, PDZ2 domain of ZO1 (Homo sapiens, UniProt Q07157, F207W). In words: biochemical. Type of test: binding.
In test [2] the target is T1, PDZ2 domain of ZO1. In words: biochemical. The note with it: pH 7. Format: binding.

Where “and” joins values, the source holds several entries; their conditions need not be identical. Equal values may be shown once. Residues, ends and D or L forms follow the SMILES beside them. *: point of attachment. Dansyl = CN(C)c1cccc2c(S(=O)(=O)*)cccc12

T1 sequence (Q07157 186-264 F207W limits assumed): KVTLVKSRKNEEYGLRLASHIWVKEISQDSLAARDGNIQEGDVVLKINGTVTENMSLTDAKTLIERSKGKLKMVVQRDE

The term Kd denotes the concentration at which binding is half-saturated. High values mean a looser complex, low ones a tighter complex. One may read the koff as the rate constant with which the complex falls apart. Take `CC(C)C[C@H](NC(=O)[C@H](CC(=O)O)NC(=O)[C@@H]1CCCN1C(=O)[C@@H](NC(=O)[C@H](CCCNC(=N)N)NC(=O)[C@H](CO)NC(=O)[C@H](CO)NC(=O)[C@H](CC(N)=O)NS(=O)(=O)c1cccc2c(N(C)C)cccc12)C(C)C)C(=O)N[C@@H](CC(C)C)C(=O)N[C@H](C(=O)O)C(C)C` [SARS-CoV-2 E peptide] (Dansyl-NSSRVPDLLV-OH): the Kd on PDZ2 domain of ZO1 [1] was 15.8 µM and 17.4 µM and 15.2 µM. In addition, at PDZ2 domain of ZO1 [2], the koff is 9.5 s⁻¹ and 8.7 ± 0.2 s⁻¹ and 6.8 ± 0.1 s⁻¹ and 9.1 ± 0.2 s⁻¹.

Take `CC(C)C[C@H](NC(=O)[C@@H]1CCCN1C(=O)[C@@H]1CCCN1C(=O)[C@H](CCCCN)NC(=O)[C@H](CO)NS(=O)(=O)c1cccc2c(N(C)C)cccc12)C(=O)N1CCC[C@H]1C(=O)N1CCC[C@H]1C(=O)N[C@@H](CC(=O)O)C(=O)N[C@@H](CCC(=O)O)C(=O)N[C@@H](Cc1c[nH]c2ccccc12)C(=O)N[C@H](C(=O)O)C(C)C` [MERS-CoV E peptide] (Dansyl-SKPPLPPDEWV-OH): the Kd on PDZ2 domain of ZO1 [1] was found to be 14 ± 1 µM. At PDZ2 domain of ZO1 [2], the off-rate (koff) worked out at 154 ± 3 s⁻¹.

In the case of ENVGLMQQQK [reference compound], at PDZ2 domain of ZO1 [1] (pH 7), the “change in fluorescence upon binding (negative control)” value is given as “no change in fluorescence upon binding”.

On to `CC(C)C[C@H](NC(=O)[C@H](CC(=O)O)NC(=O)[C@@H]1CCCN1C(=O)[C@@H](NC(=O)CNC(=O)[C@H](CCC(=O)O)NC(=O)[C@H](CO)NC(=O)[C@H](CO)NC(=O)[C@H](CC(N)=O)NS(=O)(=O)c1cccc2c(N(C)C)cccc12)C(C)C)C(=O)N[C@@H](CC(C)C)C(=O)N[C@H](C(=O)O)C(C)C` [SARS-CoV E peptide] (Dansyl-NSSEGVPDLLV-OH), for which the Kd on PDZ2 domain of ZO1 [1] was 4.7 µM and 5 µM and 8.6 µM. Moreover, the koff at PDZ2 domain of ZO1 [2] is 9 s⁻¹ and 7.0 ± 0.1 s⁻¹ and 6.9 ± 0.1 s⁻¹ and 6.2 ± 0.1 s⁻¹.
